Measured values from patent US9243002B2, “Tetracyclic heterocycle compounds and methods of use thereof for the treatment of hepatitis C” (priority 2013, dated 2016).

Legend:
HCV genotype 1b replicon = assay: HCV replicon assay, genotype 1b (cell ELISA for NS3/4A); format: cell-based, hepatitis C virus; conditions: Hepatitis C virus, 96 h, read-out: 1b IC50 (nM), genotype 1b replicon cells, 96 hours incubation, NS3/4A ELISA
Protocol: (§1) Measurement of inhibition by compounds was performed using the HCV replicon system. Several different replicons encoding different HCV genotypes or mutations were used. In addition, potency measurements were made using different formats of the replicon assay, including different ways of measurements and different plating formats. See Jan M. Vrolijk et al., A replicons-based bioassay for the measurement of interferons in patients with chronic hepatitis C, 110 J. VIROLOGICAL METHODS 201 (2003); Steven S. Carroll et al., Inhibition of Hepatitis C Virus RNA Replication by 2′-Modified Nucleoside Analogs, 278 (14) J. BIOLOGICAL CHEMISTRY 11979 (2003). However, the underlying principles are common to all of these determinations, and are outlined below.
(§2) Stable neomycin phosphotransferase encoding replicons-harboring cell lines were used, so all cell lines were maintained under G418 selection prior to the assay. Potency was deteremined using a cell ELISA assay with an antibody to the replicons encoded NS3/4a protease. See Caterina Trozzi et al., In Vitro Selection and Characterization of Hepatitis C Virus Serine Protease Variants Resistant to an Active-Site Peptide Inhibitor, 77 (6) J. Virol. 3669 (2003). To initiate an assay, replicon cells were plated in the presence of a dilution series of test compound in the absence of G418. Typically, the assays were performed in a 96-well plate formate for manual operation, or a 384-well plate format for automated assay. Replicon cells and compound were incubated for 96 hours. At the end of the assay, cells were washed free of media and compound, and the cells were then lysed. RNA was quantified indirectly through detection of replicon-encoded NS3/4A protein levels, through an ELISA-based assay with an antibody specific for NS3/4A. IC50 determinations were calculated as a percentage of a DMSO control by fitting the data to a four-parameter fit function and the data obtained for genotypes 1a and 1b using this method is provided in the table below.

HCV genotype 1a replicon = assay: HCV replicon assay, genotype 1a (cell ELISA for NS3/4A); format: cell-based, hepatitis C virus; conditions: Hepatitis C virus, 96 h, read-out: 1a IC50 (nM), genotype 1a replicon cells, 96 hours incubation, NS3/4A ELISA
Protocol: as §1, §2

Row | SMILES | IC50 (HCV genotype 1b replicon) [nM] | IC50 (HCV genotype 1a replicon) [nM]
1 | CNC(=O)c1c(-c2ccnn2C(C)C)oc2cc(N(C)S(C)(=O)=O)c(-c3ccc4c(n3)-c3cc5c(F)cccc5n3CC4)cc12 [Example 17, 5-(11-fluoro-5,6-dihydroindolo[1,2-h][1,7]naphthyridin-2-yl)-2-(1-isopropyl-1H-pyrazol-5-yl)-N-methyl-6-(N-methylmethylsulfonamido)benzofuran-3-carboxamide] | 197 | 373
2 | CNC(=O)c1c(-c2cnn(-c3ccccc3)c2)oc2cc(N(C)S(C)(=O)=O)c(-c3ccc4c(n3)-c3cc5c(F)cccc5n3CC4)cc12 [Example 18] | 296 | 5480
3 | CNC(=O)c1c(-c2cnn3c2CCC3)oc2cc(N(C)S(C)(=O)=O)c(-c3ccc4c(n3)-c3cc5c(F)cccc5n3CC4)cc12 [Example 19] | 52.3 | 56.9
4 | CNC(=O)c1c(-c2cnc(C(C)(C)O)s2)oc2cc(N(C)S(C)(=O)=O)c(-c3ccc4c(n3)-c3cc5c(F)cccc5n3CC4)cc12 [Example 20] | 129 | 680
5 | CNC(=O)c1c(-c2cnn3c2CCCC3)oc2cc(N(C)S(C)(=O)=O)c(-c3ccc4c(n3)-c3cc5c(F)cccc5n3CC4)cc12 [Example 21] | 34.3 | 149
6 | CNC(=O)c1c(-c2cnc(N3CCCC3)s2)oc2cc(N(C)S(C)(=O)=O)c(-c3ccc4c(n3)-c3cc5c(F)cccc5n3CC4)cc12 [Example 22] | 163 | 1450
7 | CNC(=O)c1c(-c2cnn(CCO)c2)oc2cc(N(C)S(C)(=O)=O)c(-c3ccc4c(n3)-c3cc5c(F)cccc5n3CC4)cc12 [Example 23] | 83.2 | 212
8 | CNC(=O)c1c(-c2cnn3ncccc23)oc2cc(N(C)S(C)(=O)=O)c(-c3ccc4c(n3)-c3cc5c(F)cccc5n3CC4)cc12 [Example 24] | 18.9 | 20
9 | CNC(=O)c1c(-c2ccn[nH]2)oc2cc(N(C)S(C)(=O)=O)c(-c3ccc4c(n3)-c3cc5c(F)cccc5n3CC4)cc12 [Example 25] | 99.4 | 287
10 | CNC(=O)c1c(-c2c(C)n[nH]c2C)oc2cc(N(C)S(C)(=O)=O)c(-c3ccc4c(n3)-c3cc5c(F)cccc5n3CC4)cc12 [Example 26] | 84.4 | 69.3
11 | CCn1cc(-c2oc3cc(N(C)S(C)(=O)=O)c(-c4ccc5c(n4)-c4cc6c(F)cccc6n4CC5)cc3c2C(=O)NC)cn1 [Example 27] | 11.1 | 9.13
12 | CNC(=O)c1c(-c2ccc(C(F)F)cc2)oc2cc(N(C)S(C)(=O)=O)c(-c3ccc4c(n3)-c3cc5c(F)cccc5n3CC4)cc12 [Example 29, 2-(4-(difluoromethyl)phenyl)-5-(11-fluoro-5,6-dihydroindolo[1,2-h][1,7]naphthyridin-2-yl)-N-methyl-6-(N-methylmethylsulfonamido)benzofuran-3-carboxamide] | 15.5 | 13.5
13 | CNC(=O)c1c(-c2ccc(F)cc2F)oc2cc(N(C)S(C)(=O)=O)c(-c3ccc4c(n3)-c3cc5c(F)cccc5n3CC4)cc12 [Example 30, 2-(2,4-difluorophenyl)-5-(11-fluoro-5,6-dihydroindolo[1,2-h][1,7]naphthyridin-2-yl)-N-methyl-6-(N-methylmethylsulfonamido)benzofuran-3-carboxamide] | 3.81 | 2.49
14 | CNC(=O)c1c(-c2ccc(F)cc2)oc2cc(N(C)S(C)(=O)=O)c(-c3ccc4c(n3)-c3cc5cc(F)ccc5n3CC4)cc12 [Example 31, 5-(10-fluoro-5,6-dihydroindolo[1,2-h][1,7]naphthyridin-2-yl)-2-(4-fluorophenyl)-N-methyl-6-(N-methylmethylsulfonamido)benzofuran-3-carboxamide] | 4.64 | 4.53
15 | CNC(=O)c1c(-n2ccc(C)cc2=O)oc2cc(N(C)S(C)(=O)=O)c(-c3ccc4c(n3)-c3cc5c(F)cccc5n3CC4)cc12 [Example 32, 5-(11-fluoro-5,6-dihydroindolo[1,2-h][1,7]naphthyridin-2-yl)-N-methyl-2-(4-methyl-2-oxopyridin-1 (2H)-yl)-6-(N-methylmethylsulfonamido)benzofuran-3-carboxamide] | 3.95 | 10.6
